Calls of active or inactive are those of the source. No cut-off for these calls is given here.
Key:
[1] = tested on: NCI-H1299; assay: Induction of apoptosis in human NCI-H1299 cells assessed as viable cells at 1 uM incubated for 24 hrs by annexin V-FITC/PI staining based flow cytometric analysis (reference value: 95 %); assay type: functional; details: read-out: Activity
[2] = tested on: NCI-H1299; assay: Inhibition of Wnt pathway in human NCI-H1299 cells assessed as downregulation of beta-catenin phosphorylation at 0.1 to 1 uM incubated for 12 hrs by Western blotting analysis; assay type: cell-based; details: dose 0.1-1 µM
[3] = tested on: NCI-H1299; assay: Induction of apoptosis in human NCI-H1299 cells assessed as viable cells at 0.25 uM incubated for 24 hrs by annexin V-FITC/PI staining based flow cytometric analysis (reference value: 95 %); assay type: functional; details: read-out: Activity
[4] = tested on: NCI-H1299; assay: Induction of apoptosis in human NCI-H1299 cells assessed as downregulation of BCL-2 expression at 0.1 to 1 uM incubated for 48 hrs by Western blotting analysis; assay type: functional, cell-based; details: dose 0.1-1 µM
[5] = biological target: Dual specificity protein kinase CLK3 (Homo sapiens, UniProt P49761); assay: Inhibition of CLK3 (unknown origin) at 100 nM by ADP-Glo assay relative to control
Sequence of Dual specificity protein kinase CLK3 (P49761 whole entry, looked up): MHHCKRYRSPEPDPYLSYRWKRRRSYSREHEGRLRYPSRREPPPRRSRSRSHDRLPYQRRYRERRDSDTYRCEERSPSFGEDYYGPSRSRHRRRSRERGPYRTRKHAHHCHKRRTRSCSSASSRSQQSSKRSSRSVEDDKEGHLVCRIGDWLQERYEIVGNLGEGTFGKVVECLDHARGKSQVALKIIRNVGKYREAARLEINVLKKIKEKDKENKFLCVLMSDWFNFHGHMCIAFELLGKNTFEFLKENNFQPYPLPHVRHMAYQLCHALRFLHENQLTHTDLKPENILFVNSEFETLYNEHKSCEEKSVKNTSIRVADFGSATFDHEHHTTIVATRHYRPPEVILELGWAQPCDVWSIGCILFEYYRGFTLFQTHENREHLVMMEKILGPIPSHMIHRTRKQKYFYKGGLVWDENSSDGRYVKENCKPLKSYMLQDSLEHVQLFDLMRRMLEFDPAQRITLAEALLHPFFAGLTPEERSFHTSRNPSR

[6] = tested on: NCI-H1299; assay: Induction of apoptosis in human NCI-H1299 cells assessed as viable cells at 2.5 uM incubated for 24 hrs by annexin V-FITC/PI staining based flow cytometric analysis (reference value: 95 %); assay type: functional; details: read-out: Activity
[7] = tested on: NCI-H1299; assay: Induction of apoptosis in human NCI-H1299 cells assessed as viable cells at 0.1 uM incubated for 24 hrs by annexin V-FITC/PI staining based flow cytometric analysis (reference value: 95 %); assay type: functional; details: read-out: Activity
[8] = biological target: T1, Dual specificity protein kinase CLK1 (Homo sapiens, UniProt P49759); assay: Inhibition of CLK in human NCI-H1299 cells assessed as downregulation of SRSF4 phosphorylation at 0.1 to 1 uM incubated for 1 hr by Western blotting analysis; assay type: cell-based; details: dose 0.1-1 µM
Target sequence in this assay (P49759 whole entry, looked up): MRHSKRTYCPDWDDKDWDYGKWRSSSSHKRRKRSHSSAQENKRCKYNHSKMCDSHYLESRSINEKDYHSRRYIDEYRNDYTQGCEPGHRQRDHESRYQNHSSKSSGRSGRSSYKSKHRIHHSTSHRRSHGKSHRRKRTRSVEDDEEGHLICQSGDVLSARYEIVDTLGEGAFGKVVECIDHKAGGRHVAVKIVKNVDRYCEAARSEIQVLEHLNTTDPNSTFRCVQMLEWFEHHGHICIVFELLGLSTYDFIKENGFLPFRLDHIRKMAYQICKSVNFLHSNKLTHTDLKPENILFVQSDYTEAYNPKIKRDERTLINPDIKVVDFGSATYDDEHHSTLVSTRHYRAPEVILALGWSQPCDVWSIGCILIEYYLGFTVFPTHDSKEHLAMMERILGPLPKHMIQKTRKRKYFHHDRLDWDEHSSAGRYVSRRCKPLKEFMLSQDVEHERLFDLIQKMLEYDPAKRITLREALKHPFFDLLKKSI

[9] = cells; details: Homo sapiens, Osimertinib-resistant HCC827AR cell, 48 h
Description: Antiproliferative activity against human Osimertinib-resistant HCC827AR cell assessed as inhibition of cell growth incubated for 48 hrs by MTT assay

[10] = tested on: NCI-H1299; assay: Induction of apoptosis in human NCI-H1299 cells assessed as downregulation of mTOR expression incubated for 12 hrs by Western blotting analysis; assay type: functional, cell-based
[11] = tested on: NCI-H1299; assay: Induction of apoptosis in human NCI-H1299 cells assessed as necrotic cells at 0.5 uM incubated for 24 hrs by annexin V-FITC/PI staining based flow cytometric analysis (reference value: 2.28 %); assay type: functional
[12] = tested on: NCI-H1299; assay: Induction of apoptosis in human NCI-H1299 cells assessed as necrotic cells at 2.5 uM incubated for 24 hrs by annexin V-FITC/PI staining based flow cytometric analysis (reference value: 2.28 %); assay type: functional
[13] = tested on: NCI-H1299; assay: Inhibition of Wnt pathway in human NCI-H1299 cells assessed as downregulation of Axin2 expression at 0.1 to 1 uM incubated for 48 hrs by Western blotting analysis; assay type: cell-based; details: dose 0.1-1 µM
[14] = tested on: NCI-H1299; assay: Induction of apoptosis in human NCI-H1299 cells assessed as early apoptotic cells at 0.1 uM incubated for 24 hrs by annexin V-FITC/PI staining based flow cytometric analysis (reference value: 0.49 %); assay type: functional
[15] = biological target: Serine/threonine-protein kinase mTOR (Homo sapiens) (UniProt P42345); assay: Inhibition of mTOR phosphorylation in human NCI-H1299 cells at 0.1 to 1 uM incubated for 12 hrs by Western blotting analysis; assay type: cell-based; details: dose 0.1-1 µM
[16] = tested on: NCI-H1299; assay: Induction of apoptosis in human NCI-H1299 cells assessed as late apoptotic cells at 0.5 uM incubated for 24 hrs by annexin V-FITC/PI staining based flow cytometric analysis (reference value: 2.23 %); assay type: functional
[17] = tested on: NCI-H1299; assay: Induction of apoptosis in human NCI-H1299 cells assessed as late apoptotic cells at 0.1 uM incubated for 24 hrs by annexin V-FITC/PI staining based flow cytometric analysis (reference value: 2.23 %); assay type: functional
[18] = tested on: NCI-H1975; assay: cells; details: Homo sapiens, NCI-H1975, 48 h
Description: Antiproliferative activity against human NCI-H1975 cells assessed as inhibition of cell growth incubated for 48 hrs by MTT assay

[19] = tested on: NCI-H1299; assay: Induction of apoptosis in human NCI-H1299 cells at 0.1 to 2.5 uM incubated for 24 hrs by annexin V-FITC/PI staining based flow cytometric analysis relative to control; assay type: functional; details: dose 0.1-2.5 µM
[20] = tested on: HCC827; assay: cells; details: Homo sapiens, HCC827, 48 h
Description: Antiproliferative activity against human HCC827 cells assessed as inhibition of cell growth incubated for 48 hrs by MTT assay

[21] = biological target: T1, Dual specificity protein kinase CLK1; assay: Inhibition of CLK in human NCI-H1299 cells assessed as downregulation of SRSF6 phosphorylation at 0.1 to 1 uM incubated for 1 hr by Western blotting analysis; assay type: cell-based; details: dose 0.1-1 µM
Target sequence in this assay (P49759 whole entry, looked up): as above

[22] = tested on: NCI-H1299; assay: Induction of autophagy in human NCI-H1299 cells assessed as effect on LC3II protein expression at 0.1 to 1 uM incubated for 48 hrs by Western blotting analysis; assay type: functional, cell-based; details: dose 0.1-1 µM
[23] = biological target: T1, Dual specificity protein kinase CLK1; assay: Inhibition of CLK1 (unknown origin) at 100 nM by ADP-Glo assay relative to control
Target sequence in this assay (P49759 whole entry, looked up): as above

[24] = tested on: NCI-H1299; assay: Induction of apoptosis in human NCI-H1299 cells assessed as downregulation of AKT expression incubated for 12 hrs by Western blotting analysis; assay type: functional, cell-based
[25] = biological target: Dual specificity tyrosine-phosphorylation-regulated kinase 1B (Homo sapiens) (UniProt Q9Y463); assay: Inhibition of DYRK1B (unknown origin) at 100 nM by ADP-Glo assay relative to control
Sequence of Dual specificity tyrosine-phosphorylation-regulated kinase 1B (Homo sapiens) (Q9Y463 whole entry, looked up): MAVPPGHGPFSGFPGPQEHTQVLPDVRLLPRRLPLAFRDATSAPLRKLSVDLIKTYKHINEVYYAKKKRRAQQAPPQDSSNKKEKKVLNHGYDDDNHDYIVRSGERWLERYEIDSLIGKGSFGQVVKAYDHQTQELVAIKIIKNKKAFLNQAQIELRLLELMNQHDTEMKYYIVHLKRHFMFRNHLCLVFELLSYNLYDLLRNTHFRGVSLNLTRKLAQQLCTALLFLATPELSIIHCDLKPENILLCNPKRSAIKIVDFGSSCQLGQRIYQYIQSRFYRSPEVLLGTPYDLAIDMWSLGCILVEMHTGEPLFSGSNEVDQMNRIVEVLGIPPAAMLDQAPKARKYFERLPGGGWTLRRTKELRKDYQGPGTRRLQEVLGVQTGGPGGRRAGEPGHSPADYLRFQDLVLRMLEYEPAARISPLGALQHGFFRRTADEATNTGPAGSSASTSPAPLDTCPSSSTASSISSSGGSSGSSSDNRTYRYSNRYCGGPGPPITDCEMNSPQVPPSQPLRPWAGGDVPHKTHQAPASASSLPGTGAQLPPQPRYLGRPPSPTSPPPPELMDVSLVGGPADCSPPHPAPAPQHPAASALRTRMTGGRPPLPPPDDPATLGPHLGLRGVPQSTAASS

[26] = tested on: NCI-H1299; assay: Induction of apoptosis in human NCI-H1299 cells assessed as downregulation of ERK expression incubated for 48 hrs by Western blotting analysis; assay type: functional, cell-based
[27] = tested on: NCI-H1299; assay: Induction of apoptosis in human NCI-H1299 cells assessed as downregulation of MCL-1 expression at 0.1 to 1 uM incubated for 48 hrs by Western blotting analysis; assay type: functional, cell-based; details: dose 0.1-1 µM
[28] = tested on: NCI-H1299; assay: Induction of autophagy in human NCI-H1299 cells assessed as effect on LC3I protein expression at 0.1 to 1 uM incubated for 48 hrs by Western blotting analysis; assay type: functional, cell-based; details: dose 0.1-1 µM
[29] = tested on: NCI-H1299; assay: Induction of apoptosis in human NCI-H1299 cells assessed as necrotic cells at 0.25 uM incubated for 24 hrs by annexin V-FITC/PI staining based flow cytometric analysis (reference value: 2.28 %); assay type: functional
[30] = tested on: NCI-H1299; assay: Induction of apoptosis in human NCI-H1299 cells assessed as viable cells at 0.5 uM incubated for 24 hrs by annexin V-FITC/PI staining based flow cytometric analysis (reference value: 95 %); assay type: functional; details: read-out: Activity
[31] = biological target: T1, Dual specificity protein kinase CLK1; assay: Inhibition of CLK1 (unknown origin) by ADP-Glo assay
Target sequence in this assay (P49759 whole entry): as the sequence (P49759 whole entry, looked up) above

[32] = tested on: A549; assay: cells; details: Homo sapiens, A549, 48 h
Description: Antiproliferative activity against human A549 cells assessed as inhibition of cell growth incubated for 48 hrs by MTT assay

[33] = tested on: NCI-H1299; assay: Induction of apoptosis in human NCI-H1299 cells assessed as late apoptotic cells at 0.25 uM incubated for 24 hrs by annexin V-FITC/PI staining based flow cytometric analysis (reference value: 2.23 %); assay type: functional
[34] = tested on: NCI-H1299; assay: Inhibition of Wnt pathway in human NCI-H1299 cells assessed as downregulation of c-Myc expression at 0.1 to 1 uM incubated for 48 hrs by Western blotting analysis; assay type: cell-based; details: dose 0.1-1 µM
[35] = tested on: NCI-H1299; assay: Inhibition of colony formation in human NCI-H1299 cells incubated for 7 days by crystal violet staining based analysis; assay type: functional, cell-based; details: time 7.0 day
[36] = biological target: Dual specificity protein kinase CLK4 (Homo sapiens, UniProt Q9HAZ1); assay: Inhibition of CLK4 (unknown origin) at 100 nM by ADP-Glo assay relative to control
Sequence of Dual specificity protein kinase CLK4 (Q9HAZ1 whole entry, looked up): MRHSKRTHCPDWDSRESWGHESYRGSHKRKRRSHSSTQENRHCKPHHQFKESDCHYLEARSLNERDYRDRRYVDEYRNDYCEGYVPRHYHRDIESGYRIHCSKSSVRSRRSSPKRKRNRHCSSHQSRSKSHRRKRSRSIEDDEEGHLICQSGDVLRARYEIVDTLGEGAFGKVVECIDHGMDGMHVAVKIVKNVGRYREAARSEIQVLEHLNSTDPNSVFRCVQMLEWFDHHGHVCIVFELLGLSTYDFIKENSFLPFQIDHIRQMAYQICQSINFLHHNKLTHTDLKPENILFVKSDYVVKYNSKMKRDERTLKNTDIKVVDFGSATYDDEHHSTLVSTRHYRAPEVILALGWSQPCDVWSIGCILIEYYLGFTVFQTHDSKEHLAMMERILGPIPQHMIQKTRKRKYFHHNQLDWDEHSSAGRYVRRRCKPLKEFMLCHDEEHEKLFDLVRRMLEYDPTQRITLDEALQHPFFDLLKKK

In the case of `FC1(F)CCN(Cc2cncc(-c3ccc4[nH]nc(-c5nc(-c6ccco6)c(-c6ccco6)[nH]5)c4c3)c2)C1`, the viability at 1 µM [1] is reported as 84.3%, the inhibition [2] is reported as “Active” and the viability at 0.25 µM [3] is reported as 92.1%. The Activity [4] was “Active”, the inhibition [5] was 103% and the viability at 2.5 µM [6] was 82%. The viability at 0.1 µM [7] was 96.2%, the inhibition [8] was “Active; Showed Stronger Inhibition Compared To Indazole 1” and the IC50 [9] was 220 nM. For the same compound, the Activity [10] was “Dose-dependent-effect”, the Activity [11] was 0.89% and the Activity [12] was 1.6%. The inhibition [13] was “Active”, the Activity [14] was 1.45% and the inhibition [15] was “Active”. For the same compound, the Activity [16] was 5.16%, the Activity [17] was 1.26% and the IC50 [18] was 150 nM. The Activity [19] was 3.7%, the IC50 [20] was 160 nM and the inhibition [21] was “Active; Showed Stronger Inhibition Compared To Indazole 1”. For the same compound, the Activity [22] was “Active”, the inhibition [23] was 98.1% and the Activity [24] was “Dose-dependent-effect”. The inhibition [25] was 84.4%, the Activity [26] was “Dose-dependent-effect” and the Activity [27] was “Active”. For the same compound, the Activity [28] was “Active”, the Activity [29] was 1.78% and the viability at 0.5 µM [30] was 85.7%. It also gave an IC50 [31] of 4.6 nM, an IC50 [32] of 170 nM and an Activity [33] of 2.55%. The inhibition [34] was “Active”, the inhibition [35] was “Dose-dependent-effect” and the inhibition [36] was 95%.

Source: ChEMBL document CHEMBL6092179, “Discovery of CLKs inhibitors for the treatment of non-small cell lung cancer” (Eur J Med Chem, 2024)
